Source: patent US20240288449A1, “METHODS FOR DIAGNOSING A CANCER- OR ANTIBIOTICS-INDUCED DYSBIOSIS AND THEIR USE FOR IMPROVING CANCER TREATMENT BY IMMUNOTHERAPY” (INSTITUT GUSTAVE ROUSSY, priority 2021, published 2024)

What was measured:
[1] = test system: MAdCAM-1 (Madcam1 gene expression); experiment: Madcam1 gene and protein expression in gut tissues of mice (RT-PCR, IHC, flow cytometry, ELISA); format: in vivo, C57BL/6J mice; conditions: for Madcam1 gene expression in mesenteric lymph nodes (mLN) / Madcam1 gene expression in ileal LP: single antibiotic regimen, 7 days conditioning
Protocol: (§1) Antibiotic treatments. If not indicated otherwise, mice were treated with a broad spectrum antibiotic solution (ATB) containing ampicillin (1 mg/ml), streptomycin (5 mg/ml), and colistin (1 mg/ml) (Sigma-Aldrich) added to the sterile drinking water of mice. In experiments where single antibiotics were used the concentrations were ampicillin (1 mg/ml), streptomycin (5 mg/ml), colistin (1 mg/ml), erythromycin (1 mg/ml) or ciprofloxacin (0.1 mg/ml) respectively. Solutions and bottles were changed 2 times weekly. Antibiotic activity, in the experiments where the antibiotic mix was used, was confirmed by cultivating fecal pellets resuspended in BHI+15% glycerol at 0.1 g/ml on COS (Columbia Agar with 5% Sheep Blood) plates for 48 h at 37° C. in aerobic and anaerobic conditions weekly. Duration of ATB treatment was slightly different (7-14 days before aPD-1 treatment) based on the experimental settings and is indicated in results for each experiment. In brief, to compromise the efficacy of anti-PD-1 mAb, mice were treated with ATB for one to two weeks before tumor implantation and ATB was continued throughout the experiment or discontinued on the day of anti PD-1 treatment initiation as indicated in the individual experiment. In the context of fecal microbial transplantation experiments, mice received 3 days of ATB before undergoing fecal microbial transplantation the next day by oral gavage using animal feeding needles. In the TC-1 model, ATB treatment was started 3 days before tumor injection and discontinued one day before the first bacterial gavage.
Oral bacterial gavage with commensal species. Akkermansia muciniphila CSUR P2261, and A. indistinctus CSUR P723 were provided by the Institut hospitalo-universitaire Méditerranée Infection, Marseille, France. Enterococcus hirae 13144 isolates were originally isolated from spleens or mesenteric lymph nodes of SPF mice treated with CTX at Gustave Roussy Cancer Campus. A. muciniphila was grown on COS plates in an anaerobic atmosphere created using 3 anaerobic generators (Biomerieux) at 37° C. for at least 72 h. E. hirae 13144 were grown on 5% sheep blood enriched Columbia agar for 24 h at 37° C. in aerobic conditions. Colonization of ATB pre-treated or GF C57BL/6 mice was performed by oral gavage with 100 μl of suspension containing 1×10^8 bacteria. For bacterial gavage: suspensions of […] were obtained using a fluorescence spectrophotometer (Eppendorf) at an optical density of 600 nm in PBS. Five bacterial gavages were performed for each mouse, the first 24 h before the first injection of antiPD-1 mAb and subsequently four times on the same day as anti-PD-1 mAb injection. The efficacy of colonization with E. hirae 13144 was confirmed by culturing the feces 48 h post gavage. Fecal pellets were harvested and resuspended in BHI+15% glycerol at 0.1 g/ml. Serial dilutions of feces were plated onto 5% sheep blood enriched Columbia agar and incubated for 48 h at 37° C. in aerobic and anaerobic conditions. After 48 h, single colonies were isolated and Gram staining was performed. The identification of specific bacteria was accomplished using a Matrix-Assisted Laser Desorption/Ionisation Time of Flight (MALDI-TOF) mass spectrometer (Andromas, Beckman Coulter, France).
RNA extraction and rtPCR. Lysis and extraction protocols were identical for human and mouse samples. Tumor or intestinal samples were snap frozen in liquid nitrogen in RLT Plus buffer containing 0.1% beta mercaptoethanol. On the day of extraction samples were thawed at 4° C. and homogenized on a microtube homogenizer (Benchmark Scientific) in RNA free glass bead tubes (Dutscher). Total RNA extraction and genomic DNA removal were performed with the RNeasy Mini kit (Qiagen), following the manufacturer's recommendations. […]

[2] = test system: metastatic clear cell renal cell carcinoma (RCC); experiment: NIVOREN trial, second line anti-PD1 in renal cell carcinoma patients; format: in vivo, human
[3] = test system: metastatic bladder cancer; experiment: STRONG study, Durvalumab in pre-treated metastatic bladder cancer patients; format: in vivo, human; conditions: 79 patients, 1500 mg iv /4 weeks
Protocol: Finally, we sought to triplicate the predictive value of sMAdCAM-1 in a subcohort of a Phase 3a trial enrolling pre-treated metastatic bladder cancer patients to receive a fixed dose of 1500 mg of Durvalumab iv (anti-PD-L1 Abs)/4 weeks. In this STRONG study, 79 patients only were analyzed, with an overall median OS of 5.79 months, and a median PFS of 2.79 months. We selected the extreme of the STRONG cohort, 30 Elite patients (OS>6 months, PFS>5 months, PR+CR only) and rapid progressors (n=49, with OS<6 months and PFS<5 months and PD at the first CT scan). In this cohort, the MAdCAM-1 median (min,max) was 158.8 ng/ml (53.41, 244.36).

[4] = test system: RORγt+ Treg (Tr17) in MCA205 and 4T1 tumors; experiment: Flow cytometry of tumor infiltrating lymphocytes and mLN (Tr17 subsets); format: in vivo, mice; conditions: oral gavage after ATB stop, s.c. MCA205, αPD-1-based therapy
Protocol: as §1, with “In the context of fecal microbial transplantation experiments, mice received 3 days of ATB before undergoing fecal microbial transplantation the next day by oral gavage using animal feeding needles. In the TC-1 model, ATB treatment was started 3 days before tumor injection and discontinued one day before the first bacterial gavage.” left out
Subcutaneous model of MCA-205 sarcoma, MC38 and RET melanoma. […] Tumor length and width was routinely monitored every 3 times per week by means of a caliper. […]

[5] = NIVOREN trial, N=729 RCC patients

Compound: CC1(C)S[C@@H]2[C@H](NC(=O)[C@H](N)c3ccccc3)C(=O)N2[C@H]1C(=O)O [ampicilline, ampicillin]
- Madcam1 gene expression in mesenteric lymph nodes (mLN) ([1]; RT-PCR): downregulate

Compound: Nivolumab: anti-PD1 mAb
- complete responses [2, 5]: 1.2%
- objective response rate [2, 5]: 20.8%
- partial responses [2, 5]: 19.6%
- progressive diseases (PD) [2, 5]: 79.2%
- Best response: Partial response ([2]; Overall (n = 212) RCC patients): (7.1) %
- Best response: Progressive disease ([2]; Overall (n = 212) RCC patients): (49.7) %

Compound: CC[C@H]1OC(=O)[C@H](C)[C@@H](O[C@H]2C[C@@](C)(OC)[C@@H](O)[C@H](C)O2)[C@H](C)[C@@H](O[C@@H]2O[C@H](C)C[C@H](N(C)C)[C@H]2O)[C@](C)(O)C[C@@H](C)C(=O)[C@H](C)[C@@H](O)[C@]1(C)O [erythromycin]
- Madcam1 gene expression in mesenteric lymph nodes (mLN) ([1]; RT-PCR): downregulate

Compound: CN[C@H](CC(C)C)C(=O)N[C@H]1C(=O)N[C@@H](CC(N)=O)C(=O)N[C@H]2C(=O)N[C@H]3C(=O)N[C@H](C(=O)N[C@H](C(=O)O)c4cc(O)cc(O)c4-c4cc3ccc4O)[C@H](O)c3ccc(c(Cl)c3)Oc3cc2cc(c3O[C@@H]2O[C@H](CO)[C@@H](O)[C@H](O)[C@H]2O[C@H]2C[C@](C)(N)[C@H](O)[C@H](C)O2)Oc2ccc(cc2Cl)[C@H]1O [vancomycin]
- Madcam1 gene expression in ileal LP ([1]; RT-PCR): upregulated
- Madcam1 gene expression in mesenteric lymph nodes (mLN) ([1]; RT-PCR): failed to downregulate

Compound: Durvalumab: anti-PD-L1 Abs
- median PFS [3]: 2.79 months
- overall median OS [3]: 5.79 months

Compound: [H]/N=C(/N)N[C@H]1[C@H](O)[C@@H](O)[C@H](O[C@@H]2O[C@@H](C)[C@](O)(C=O)[C@H]2O[C@@H]2O[C@@H](CO)[C@H](O)[C@@H](O)[C@@H]2NC)[C@@H](N/C(N)=N\[H])[C@@H]1O [streptomycin]
- Madcam1 gene expression in Peyers' patches (PP) ([1]; RT-PCR): downregulated
- Madcam1 gene expression in ileal LP ([1]; RT-PCR): downregulated
- Madcam1 gene expression in mesenteric lymph nodes (mLN) ([1]; RT-PCR): downregulated

Compound: Lactobacillus reuteri
- Madcam1 ileal gene expression ([1]; oral supplementation of FMT recipients): could further influence
- Tr17 recruitment promoted by PD1 inhibition [4]: failed to do so
